Laboratory results taken from PubChem BioAssay AID1259407 (Chemical Carcinogenesis Research Information System (CCRIS), 2018).
Calls of active or inactive are those of the source. The rule behind the calls is not given here.

Tested on: CCRIS mutagenicity, Ames/micronucleus/aberration tests
Assay: CCRIS mutagenicity studies
[1] = Test System: AMES SALMONELLA TYPHIMURIUM, Strain/Indicator: TA98, Metabolic Activation: NONE, Method: STANDARD PLATE
[2] = Test System: AMES SALMONELLA TYPHIMURIUM, Strain/Indicator: TA98, Metabolic Activation: RAT, LIVER, S-9, AROCLOR 1254, Method: STANDARD PLATE
[3] = Test System: AMES SALMONELLA TYPHIMURIUM, Strain/Indicator: TA100, Metabolic Activation: NONE, Method: STANDARD PLATE

Measured: mutagenic call

CC[n+]1c(-c2ccccc2)c2cc(N)ccc2c2ccc(N)cc21
inactive: End Point: IN VITRO MICRONUCLEUS, Test System: CHO CELLS, Metabolic Activation: RAT, LIVER, S-9, AROCLOR 1254 inactive; negative | Test System: AMES SALMONELLA TYPHIMURIUM, Strain/Indicator: TA97A, Metabolic Activation: NONE, Method: STANDARD PLATE inactive; negative | [1] inactive; negative | [3] inactive; negative | Test System: AMES SALMONELLA TYPHIMURIUM, Strain/Indicator: TA100, Metabolic Activation: RAT LIVER S-9, AROCLOR 1254, Method: STANDARD PLATE inactive; negative | Test System: AMES SALMONELLA TYPHIMURIUM, Strain/Indicator: TA100, Metabolic Activation: RAT, LIVER, S-9, AROCLOR 1254 OR PHENOBARBITOL, Method: STANDARD PLATE inactive; negative | Test System: AMES SALMONELLA TYPHIMURIUM, Strain/Indicator: TA102, Metabolic Activation: NONE, Method: STANDARD PLATE inactive; negative | Test System: AMES SALMONELLA TYPHIMURIUM, Strain/Indicator: TA1535, Metabolic Activation: NONE, Method: STANDARD PLATE inactive; negative | Test System: AMES SALMONELLA TYPHIMURIUM, Strain/Indicator: TA1535, Metabolic Activation: RAT LIVER S-9, AROCLOR 1254, Method: STANDARD PLATE inactive; negative | Test System: AMES SALMONELLA TYPHIMURIUM, Strain/Indicator: TA1535, Metabolic Activation: RAT, LIVER, S-9, AROCLOR 1254 OR PHENOBARBITOL, Method: STANDARD PLATE inactive; negative | Test System: AMES SALMONELLA TYPHIMURIUM, Strain/Indicator: TA1537, Metabolic Activation: NONE, Method: STANDARD PLATE inactive; negative | Test System: AMES SALMONELLA TYPHIMURIUM, Strain/Indicator: TA1538, Metabolic Activation: NONE, Method: STANDARD PLATE inactive; negative | Test System: CHINESE HAMSTER OVARY, Strain/Indicator: CHO-K1-BH4 (HGPRT)/6-THIOGUANINE, Metabolic Activation: NONE, Method: SUSPENSION/PLATE inactive; negative | Test System: CHINESE HAMSTER OVARY, Strain/Indicator: CHO-K1-BH4 (HGPRT)/6-THIOGUANINE, Metabolic Activation: S-9, Method: SUSPENSION/PLATE inactive; negative | Test System: CHINESE HAMSTER OVARY, Strain/Indicator: CHO-K1-BH4 (HGPRT), Metabolic Activation: NONE, Method: SUSPENSION/PLATE inactive; negative | Test System: CHINESE HAMSTER OVARY, Strain/Indicator: CHO-K1-BH4 (HGPRT), Metabolic Activation: RAT, LIVER, S-9, AROCLOR, Method: SUSPENSION/PLATE inactive; negative | Test System: CHINESE HAMSTER V-79, Strain/Indicator: V-79/6-THIOGUANINE, Metabolic Activation: NONE, Method: FLASK ASSAY inactive; negative | Test System: E. COLI, Strain/Indicator: WP2, Metabolic Activation: NONE, Method: PREINCUBATION inactive; negative | Test System: E. COLI, Strain/Indicator: WP2 UVRA, Metabolic Activation: NONE, Method: PREINCUBATION inactive; negative | Test System: MOUSE LYMPHOMA, Strain/Indicator: L5178Y (TK+/TK-), Metabolic Activation: S-9, Method: SUSPENSION/PLATE inactive; negative
active: Test System: AMES SALMONELLA TYPHIMURIUM, Strain/Indicator: TA97A, Metabolic Activation: RAT LIVER S-9, AROCLOR 1254, Method: STANDARD PLATE active; positive | Test System: AMES SALMONELLA TYPHIMURIUM, Strain/Indicator: TA98, Metabolic Activation: RAT LIVER S-9, AROCLOR 1254, Method: STANDARD PLATE active; positive | Test System: AMES SALMONELLA TYPHIMURIUM, Strain/Indicator: TA98, Metabolic Activation: RAT, LIVER, S-9, AROCLOR 1254, HAMSTER, LIVER, S-9, AROCLOR 1254, Method: STANDARD PLATE active; positive | [2] active; positive | Test System: AMES SALMONELLA TYPHIMURIUM, Strain/Indicator: TA98, Metabolic Activation: RAT, LIVER, S-9, AROCLOR 1254 OR PHENOBARBITOL, Method: STANDARD PLATE active; positive | Test System: AMES SALMONELLA TYPHIMURIUM, Strain/Indicator: TA102, Metabolic Activation: RAT LIVER S-9, AROCLOR 1254, Method: STANDARD PLATE active; positive | Test System: AMES SALMONELLA TYPHIMURIUM, Strain/Indicator: TA1537, Metabolic Activation: RAT LIVER S-9, AROCLOR 1254, Method: STANDARD PLATE active; positive | Test System: AMES SALMONELLA TYPHIMURIUM, Strain/Indicator: TA1537, Metabolic Activation: RAT, LIVER, S-9, AROCLOR 1254, HAMSTER, LIVER, S-9, AROCLOR 1254 (2.5-20%), Method: STANDARD PLATE active; positive | Test System: AMES SALMONELLA TYPHIMURIUM, Strain/Indicator: TA1537, Metabolic Activation: RAT, LIVER, S-9, AROCLOR 1254, HAMSTER, LIVER, S-9, AROCLOR 1254, Method: STANDARD PLATE active; positive | Test System: AMES SALMONELLA TYPHIMURIUM, Strain/Indicator: TA1537, Metabolic Activation: RAT, LIVER, S-9, AROCLOR 1254 OR PHENOBARBITOL, Method: STANDARD PLATE active; positive | Test System: AMES SALMONELLA TYPHIMURIUM, Strain/Indicator: TA1538, Metabolic Activation: RAT LIVER S-9, AROCLOR 1254, Method: STANDARD PLATE active; positive | Test System: AMES SALMONELLA TYPHIMURIUM, Strain/Indicator: TA1538, Metabolic Activation: RAT, LIVER, S-9, AROCLOR 1254, HAMSTER, LIVER, S-9, AROCLOR 1254, Method: STANDARD PLATE active; positive | Test System: AMES SALMONELLA TYPHIMURIUM, Strain/Indicator: TA1538, Metabolic Activation: RAT, LIVER, S-9, AROCLOR 1254, Method: STANDARD PLATE active; positive | Test System: AMES SALMONELLA TYPHIMURIUM, Strain/Indicator: TA1538, Metabolic Activation: RAT, LIVER, S-9, AROCLOR 1254 OR PHENOBARBITOL, Method: STANDARD PLATE active; positive | Test System: MOUSE LYMPHOMA, Strain/Indicator: L5178Y (TK+/TK-), Metabolic Activation: RAT, LIVER, S-9, AROCLOR 1254, Method: SUSPENSION/PLATE active; positive. reevaluation of results: positive

ClCBr
inactive: Test System: AMES SALMONELLA TYPHIMURIUM, Strain/Indicator: TA104, Metabolic Activation: RAT, LIVER, S-9, AROCLOR 1254, Method: STANDARD PLATE inactive; negative
active: Test System: AMES SALMONELLA TYPHIMURIUM, Strain/Indicator: TA97, Metabolic Activation: NONE, Method: STANDARD PLATE active; positive | Test System: AMES SALMONELLA TYPHIMURIUM, Strain/Indicator: TA97, Metabolic Activation: RAT, LIVER, S-9, AROCLOR 1254, Method: STANDARD PLATE active; positive | Test System: AMES SALMONELLA TYPHIMURIUM, Strain/Indicator: TA98, Metabolic Activation: HAMSTER, LIVER, S-9, AROCLOR 1254 (30%), Method: PREINCUBATION active; positive | Test System: AMES SALMONELLA TYPHIMURIUM, Strain/Indicator: TA98, Metabolic Activation: NONE, Method: PREINCUBATION active; positive | [1] active; positive | Test System: AMES SALMONELLA TYPHIMURIUM, Strain/Indicator: TA98, Metabolic Activation: RAT, LIVER, S-9, AROCLOR 1254 (30%), Method: PREINCUBATION active; positive | [2] active; positive | Test System: AMES SALMONELLA TYPHIMURIUM, Strain/Indicator: TA100, Metabolic Activation: HAMSTER, LIVER, S-9, AROCLOR 1254 (30%), Method: PREINCUBATION active; positive | Test System: AMES SALMONELLA TYPHIMURIUM, Strain/Indicator: TA100, Metabolic Activation: NONE, Method: DESICCATOR active; positive | Test System: AMES SALMONELLA TYPHIMURIUM, Strain/Indicator: TA100, Metabolic Activation: NONE, Method: PREINCUBATION active; positive | [3] active; positive | Test System: AMES SALMONELLA TYPHIMURIUM, Strain/Indicator: TA100, Metabolic Activation: RAT, LIVER, S-9, AROCLOR 1254 (30%), Method: PREINCUBATION active; positive | Test System: AMES SALMONELLA TYPHIMURIUM, Strain/Indicator: TA100, Metabolic Activation: RAT, LIVER, S-9, AROCLOR 1254, Method: STANDARD PLATE active; positive | Test System: AMES SALMONELLA TYPHIMURIUM, Strain/Indicator: TA104, Metabolic Activation: NONE, Method: STANDARD PLATE active; positive
